According to PubChem BioAssay AID2060499 (Molecular Pharmacology Branch, DTP, NCI, 2025):

Tested on: 777334-354-R2-J4-PDC tumor spheroids with HUVEC/MSC, viability
Assay: Anticancer human tumor 777334-354-R2-J4-PDC patient-derived pancreatic adenocarcinoma cell line growth inhibition [GQUAD]
Conditions: for IC50: curve of first compound; for viability, T/C: stronger effect = lower value
In short: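 Multi-cell-type spheroids of tumor cells with HUVEC and mesenchymal stem cells, treated with drug combinations. Concentrations descend in half-log steps from near clinical Cmax, or from 10 microM where Cmax is unknown; viability read-out.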

[1] = second compound 0.0316 µM, first compound 0.0316 µM
[2] = second compound 0.0316 µM, first compound 0.1 µM
[3] = second compound 0.0316 µM, first compound 0.316 µM
[4] = second compound 0.0316 µM, first compound 1 µM
[5] = second compound 0.0316 µM, first compound 3.16 µM
[6] = second compound 0.0316 µM, first compound 10 µM
[7] = second compound 0.1 µM, first compound 0.0316 µM
[8] = second compound 0.1 µM, first compound 0.1 µM
[9] = second compound 0.1 µM, first compound 0.316 µM
[10] = second compound 0.1 µM, first compound 1 µM
[11] = second compound 0.1 µM, first compound 3.16 µM
[12] = second compound 0.1 µM, first compound 10 µM
[13] = second compound 0.316 µM, first compound 0.0316 µM
[14] = second compound 0.316 µM, first compound 0.1 µM
[15] = second compound 0.316 µM, first compound 0.316 µM
[16] = second compound 0.316 µM, first compound 1 µM
[17] = second compound 0.316 µM, first compound 3.16 µM
[18] = second compound 0.316 µM, first compound 10 µM
[19] = second compound 1 µM, first compound 0.0316 µM
[20] = second compound 1 µM, first compound 0.1 µM
[21] = second compound 1 µM, first compound 0.316 µM
[22] = second compound 1 µM, first compound 1 µM
[23] = second compound 1 µM, first compound 3.16 µM
[24] = second compound 1 µM, first compound 10 µM
[25] = second compound 3.16 µM, first compound 0.0316 µM
[26] = second compound 3.16 µM, first compound 0.1 µM
[27] = second compound 3.16 µM, first compound 0.316 µM
[28] = second compound 3.16 µM, first compound 1 µM
[29] = second compound 3.16 µM, first compound 3.16 µM
[30] = second compound 3.16 µM, first compound 10 µM
[31] = second compound 10 µM, first compound 0.0316 µM
[32] = second compound 10 µM, first compound 0.1 µM
[33] = second compound 10 µM, first compound 0.316 µM
[34] = second compound 10 µM, first compound 1 µM
[35] = second compound 10 µM, first compound 3.16 µM
[36] = second compound 10 µM, first compound 10 µM
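Further: spheroids exposed to compounds for 7 days before readout.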

O=C(NO)c1cnc(N2CCN(S(=O)(=O)c3ccc4ccccc4c3)CC2)nc1 + CN(C)c1ccc(Nc2c3ccc(NC(=O)CCN4CCCC4)cc3nc3cc(NC(=O)CCN4CCCC4)ccc23)cc1
IC50 (second compound 0.0316 µM): 0.926 µM
IC50 (second compound 0.1 µM): 1.29 µM
IC50 (second compound 0.316 µM): 1.07 µM
IC50 (second compound 1 µM): 0.852 µM
IC50 (second compound 3.16 µM): 0.954 µM
IC50 (second compound 10 µM): 1.01 µM
viability, T/C [1]: 103%
viability, T/C [2]: 89.5%
viability, T/C [3]: 79.4%
viability, T/C [4]: 50.8%
viability, T/C [5]: 11.1%
viability, T/C [6]: 0.3%
viability, T/C [7]: 91.5%
viability, T/C [8]: 90.6%
viability, T/C [9]: 83.5%
viability, T/C [10]: 62.3%
viability, T/C [11]: 8.7%
viability, T/C [12]: 1.67%
viability, T/C [13]: 86.8%
viability, T/C [14]: 94.7%
viability, T/C [15]: 76.6%
viability, T/C [16]: 54.8%
viability, T/C [17]: 10.9%
viability, T/C [18]: 2.03%
viability, T/C [19]: 84.3%
viability, T/C [20]: 80.8%
viability, T/C [21]: 62.5%
viability, T/C [22]: 54.2%
viability, T/C [23]: 12%
viability, T/C [24]: 0.73%
viability, T/C [25]: 86.3%
viability, T/C [26]: 72.1%
viability, T/C [27]: 65.9%
viability, T/C [28]: 54%
viability, T/C [29]: 10.9%
viability, T/C [30]: 0.96%
viability, T/C [31]: 66%
viability, T/C [32]: 65.3%
viability, T/C [33]: 63.1%
viability, T/C [34]: 50.4%
viability, T/C [35]: 11.1%
viability, T/C [36]: 0.95%

CCCS(=O)(=O)Nc1ccc(F)c(C(=O)c2c[nH]c3ncc(-c4ccc(Cl)cc4)cc23)c1F + CN(C)c1ccc(Nc2c3ccc(NC(=O)CCN4CCCC4)cc3nc3cc(NC(=O)CCN4CCCC4)ccc23)cc1
IC50 (second compound 0.0316 µM): 8.17 µM
IC50 (second compound 0.1 µM): 8.42 µM
IC50 (second compound 0.316 µM): 8.71 µM
IC50 (second compound 1 µM): 8.4 µM
IC50 (second compound 3.16 µM): 8.42 µM
IC50 (second compound 10 µM): 6.42 µM
viability, T/C [1]: 93%
viability, T/C [2]: 97%
viability, T/C [3]: 115%
viability, T/C [4]: 115%
viability, T/C [5]: 116%
viability, T/C [6]: 37.6%
viability, T/C [7]: 92.5%
viability, T/C [8]: 105%
viability, T/C [9]: 127%
viability, T/C [10]: 128%
viability, T/C [11]: 151%
viability, T/C [12]: 37.6%
viability, T/C [13]: 101%
viability, T/C [14]: 98.5%
viability, T/C [15]: 130%
viability, T/C [16]: 117%
viability, T/C [17]: 152%
viability, T/C [18]: 40.5%
viability, T/C [19]: 92.4%
viability, T/C [20]: 98.6%
viability, T/C [21]: 107%
viability, T/C [22]: 124%
viability, T/C [23]: 137%
viability, T/C [24]: 39%
viability, T/C [25]: 81.6%
viability, T/C [26]: 107%
viability, T/C [27]: 97.6%
viability, T/C [28]: 122%
viability, T/C [29]: 131%
viability, T/C [30]: 39.8%
viability, T/C [31]: 88%
viability, T/C [32]: 87%
viability, T/C [33]: 87.9%
viability, T/C [34]: 93.6%
viability, T/C [35]: 81.1%
viability, T/C [36]: 30.1%
